Where a name gives a salt, the structure may show the parent alone.
Test system: T1, JNK
T1 construct: Human JNK2α2 assay contains 1 nM enzyme; Human JNK1α1 assay contains 2 nM enzyme
Test: JNK Assay in vitro (phosphorylation of GST-ATF2 with [γ-33P] ATP)
Format: biochemical, Human
Conditions: IC50 affinity values; JNK isoform (JNK1α1, JNK2α2 or JNK3) not stated; Km concentrations of ATP and substrate; 30° C. for 30 min
Description: JNK activity was measured by phosphorylation of GST-ATF2 (19-96) with [-^33P] ATP. […] Human JNK2α2 assay contains 1 nM enzyme, 1 μM ATF2, 8 μM ATP with 1 uCi [γ-^33P] ATP. Human JNK1α1 assay contains 2 nM enzyme, 1 μM ATF2, 6 μM ATP with 1 μCi [γ-^33P] ATP. Human JNK3 (Upstate Biotech #14-501M) assay contains 2 nM enzyme, 1 μM ATF2, 4 μM ATP with 1 μCi [γ-^33P] ATP. The enzyme assay was carried out in the presence or absence of several compound concentrations. JNK and compound were pre-incubated for 10 min., followed by initiation of the enzymatic reaction by adding ATP and the substrate. The reaction mixture was incubated at 30° C. for 30 min. At the end of incubation, the reaction was terminated by transferring 25 μl of the reaction mixture to 150 μl of 10% glutathione Sepharose® slurry (Amersham #27-4574-01) containing 135 mM EDTA. The reaction product was captured on the affinity resin, and washed on a filtration plate (Millipore, MABVNOB50) with phosphate buffered saline for six times to remove free radionucleotide. The incorporation of ^33P into ATF2 was quantified on a microplate scintillation counter (Packard Topcount). Compound inhibition potency on JNK was measured by IC50 value generated from ten concentration inhibition curves fitted into the 3-parameter model: % inhibition=Maximum/(1+(IC50/[Inhibitor])^slope). Data were analyzed on Microsoft Excel for parameter estimation.

| Structure (SMILES) | IC50 |
| --- | --- |
| O=C([C@H]1CC[C@H](Nc2nccc(-n3ncc4c(C(F)(F)F)cccc43)n2)CC1)N1CCn2cnnc2C1 [Compound 29, (5,6-Dihydro-8H-[1,2,4]triazolo[4,3-a]pyrazin-7-yl)-{4-[4-(4-trifluoromethyl-indazol-1-yl)-pyrimidin-2-ylamino]-cyclohexyl}-methanone] | 135 nM |
| Cc1nnc2n1CCN(C(=O)[C@H]1CC[C@H](Nc3nccc(-n4ncc5c(C(F)(F)F)cccc54)n3)CC1)C2 [Compound 30, (3-Methyl-5,6-dihydro-8H-[1,2,4]triazolo[4,3-a]pyrazin-7-yl)-{4-[4-(4-trifluoromethyl-indazol-1-yl)-pyrimidin-2-ylamino]-cyclohexyl}-methanone] | 165 nM |

Test system: not given
Test: not given
Conditions: not given

| Structure (SMILES) | melting point |
| --- | --- |
| C=C(C)c1cccc2c1ccn2-c1ccnc(N[C@H]2CC[C@H](C(=O)N3CCn4cnnc4C3)CC2)n1 (as salt: HCl) [Compound 25, (5,6-Dihydro-8H-[1,2,4]triazolo[4,3-a]pyrazin-7-yl)-{4-[4-(4-isopropenyl-indol-1-yl)-pyrimidin-2-ylamino]-cyclohexyl}-methanone] | 186 to 188 °C |
| C=C(C)c1cccc2c1ccn2-c1ccnc(N[C@H]2CC[C@H](C(=O)N3CCn4c(C)nnc4C3)CC2)n1 (as salt: HCl) [Compound 26, {4-[4-(4-Isopropenyl-indol-1-yl)-pyrimidin-2-ylamino]-cyclohexyl}-(3-methyl-5,6-dihydro-8H-[1,2,4]triazolo[4,3-a]pyrazin-7-yl)-methanone] | 216.6 to 221 °C |
| O=C([C@H]1CC[C@H](Nc2nccc(-n3ccc4c(OC(F)F)cccc43)n2)CC1)N1CCn2cnnc2C1 (as salt: HCl) [Compound 27, {4-[4-(4-Difluoromethoxy-indol-1-yl)-pyrimidin-2-ylamino]-cyclohexyl}-(5,6-dihydro-8H-[1,2,4]triazolo[4,3-a]pyrazin-7-yl)-methanone] | 175 to 178 °C |
| Cc1nnc2n1CCN(C(=O)[C@H]1CC[C@H](Nc3nccc(-n4ccc5c(OC(F)F)cccc54)n3)CC1)C2 (as salt: HCl) [Compound 28, {4-[4-(4-Difluoromethoxy-indol-1-yl)-pyrimidin-2-ylamino]-cyclohexyl}-(3-methyl-5,6-dihydro-8H-[1,2,4]triazolo[4,3-a]pyrazin-7-yl)-methanone] | 205 to 210 °C |
| Cc1cccc2c1nnn2-c1ccnc(N[C@H]2CC[C@H](C(=O)N3CCn4cc(C(F)(F)F)nc4C3)CC2)n1 (as salt: HCl) [Compound 33, {4-[4-(4-Methyl-benzotriazol-1-yl)-pyrimidin-2-ylamino]-cyclohexyl}-(2-trifluoromethyl-5,6-dihydro-8H-imidazo[1,2-a]pyrazin-7-yl)-methanone] | 258 to 260 °C |
| Cc1cccc2c1nnn2-c1ccnc(N[C@H]2CC[C@H](C(=O)N3CCn4cnnc4C3)CC2)n1 (as salt: HCl) [Compound 34, (5,6-Dihydro-8H-[1,2,4]triazolo[4,3-a]pyrazin-7-yl)-{4-[4-(4-methyl-benzotriazol-1-yl)-pyrimidin-2-ylamino]-cyclohexyl}-methanone] | 236 to 238 °C |
| Cc1cccc2c1nnn2-c1ccnc(N[C@H]2CC[C@H](C(=O)N3CCn4c(C)nnc4C3)CC2)n1 (as salt: HCl) [Compound 35, {4-[4-(4-Methyl-benzotriazol-1-yl)-pyrimidin-2-ylamino]-cyclohexyl}-(3-methyl-5,6-dihydro-8H-[1,2,4]triazolo[4,3-a]pyrazin-7-yl)-methanone] | 246 to 248 °C |
| O=C([C@H]1CC[C@@H](Nc2nccc(-n3nnc4c(C(F)(F)F)cccc43)n2)CC1)N1CCn2cnnc2C1 (as salt: HCl) [Compound 37, (5,6-Dihydro-8H-[1,2,4]triazolo[4,3-a]pyrazin-7-yl)-{4-[4-(4-trifluoromethyl-benzotriazol-1-yl)-pyrimidin-2-ylamino]-cyclohexyl}-methanone] | 200 to 210 °C |
| CC(C)(O)c1cccc2c1nnn2-c1ccnc(N[C@H]2CC[C@H](C(=O)N3CCn4cnnc4C3)CC2)n1 (as salt: HCl) [Compound 38, (5,6-Dihydro-8H-[1,2,4]triazolo[4,3-a]pyrazin-7-yl)-(4-{4-[4-(1-hydroxy-1-methyl-ethyl)-benzotriazol-1-yl]-pyrimidin-2-ylamino}-cyclohexyl)-methanone] | 180 to 200 °C |
| Cc1nnc2n1CCN(C(=O)[C@H]1CC[C@H](Nc3nccc(-n4nnc5c(C(C)(C)O)cccc54)n3)CC1)C2 (as salt: HCl) [Compound 39, (4-{4-[4-(1-Hydroxy-1-methyl-ethyl)-benzotriazol-1-yl]-pyrimidin-2-ylamino}-cyclohexyl)-(3-methyl-5,6-dihydro-8H-[1,2,4]triazolo[4,3-a]pyrazin-7-yl)-methanone] | 145 to 150 °C |
| O=C([C@H]1CC[C@H](Nc2nccc(-n3nnc4c(OC(F)F)cccc43)n2)CC1)N1CCn2cnnc2C1 (as salt: HCl) [Compound 44, {4-[4-(4-Dilfuoromethoxy-benzotriazol-1-yl)-pyrimidin-2-ylamino]-cyclohexyl}-(5,6-dihydro-8H-[1,2,4]triazolo[4,3-a]pyrazin-7-yl)-methanone] | 185 to 190 °C |
| Cc1nnc2n1CCN(C(=O)[C@H]1CC[C@H](Nc3nccc(-n4nnc5c(OC(F)F)cccc54)n3)CC1)C2 (as salt: HCl) [Compound 45, {4-[4-(4-Difluoromethoxy-benzotriazol-1-yl)-pyrimidin-2-ylamino]-cyclohexyl}-(3-methyl-5,6-dihydro-8H-[1,2,4]triazolo[4,3-a]pyrazin-7-yl)-methanone] | 190 to 195 °C |
| O=C([C@H]1CC[C@H](Nc2nccc(-n3ncc4c(C(F)(F)F)cccc43)n2)CC1)N1CCn2cnnc2C1 [Compound 29, (5,6-Dihydro-8H-[1,2,4]triazolo[4,3-a]pyrazin-7-yl)-{4-[4-(4-trifluoromethyl-indazol-1-yl)-pyrimidin-2-ylamino]-cyclohexyl}-methanone] | 223 to 227 °C |
| Cc1nnc2n1CCN(C(=O)[C@H]1CC[C@H](Nc3nccc(-n4ncc5c(C(F)(F)F)cccc54)n3)CC1)C2 [Compound 30, (3-Methyl-5,6-dihydro-8H-[1,2,4]triazolo[4,3-a]pyrazin-7-yl)-{4-[4-(4-trifluoromethyl-indazol-1-yl)-pyrimidin-2-ylamino]-cyclohexyl}-methanone] | 258 to 260 °C |
